Results from ChEMBL document CHEMBL1201862, “PubChem BioAssay data set” (2004).
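Exposure lasted 48 hours, with cells grown in 96-well plates and compounds tested at five concentrations. The concentration for 50% growth inhibition is given as GI50.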 The source made the active and inactive calls. Cut-off read from the data, not from the text of the source: active = GI50 up to about 1.1 µM and inactive = higher.

Assays:
Experiment in all cases: growth of human tumour cells (NCI), 48 h
MDA-MB-231 = tested on: MDA-MB-231
HOP-62 = tested on: HOP-62
OVCAR-4 = tested on: OVCAR-4
CCRF-CEM = tested on: CCRF-CEM
HT-29 = tested on: HT-29
MDA-MB-435 = tested on: MDA-MB-435
SK-MEL-28 = tested on: SK-MEL-28
SK-MEL-5 = tested on: SK-MEL-5
K562 = tested on: K562
NCI-H226 = tested on: NCI-H226
SF-295 = tested on: SF-295
OVCAR-3 = tested on: OVCAR-3
Hs-578T = tested on: Hs-578T
EKVX = tested on: EKVX
RPMI-8226 = tested on: RPMI-8226
HL-60 = tested on: HL-60
IGROV-1 = tested on: IGROV-1
DU-145 = tested on: DU-145
MDA-N = tested on: MDA-N

SMILES | GI50 (MDA-MB-231) | GI50 (HOP-62) | GI50 (OVCAR-4) | GI50 (CCRF-CEM) | GI50 (HT-29) | GI50 (MDA-MB-435) | GI50 (SK-MEL-28) | GI50 (SK-MEL-5) | GI50 (K562) | GI50 (NCI-H226) | GI50 (SF-295) | GI50 (OVCAR-3) | GI50 (Hs-578T) | GI50 (EKVX) | GI50 (RPMI-8226) | GI50 (HL-60) | GI50 (IGROV-1) | GI50 (DU-145) | GI50 (MDA-N)
CC(C)(C)c1ccc(OCCOc2ccc(C(C)(C)C)cc2N)c(N)c1 | 17.5 µM (inactive) | > 100 µM (inactive) | 20 µM (inactive) | 22.9 µM (inactive) | 10 µM (inactive) | > 100 µM (inactive) | > 100 µM (inactive) | > 100 µM (inactive) | > 100 µM (inactive) | > 100 µM (inactive) | > 100 µM (inactive) | > 100 µM (inactive) | 24.2 µM (inactive) | > 100 µM (inactive) | 9.89 µM (inactive) | > 100 µM (inactive) | 38.5 µM (inactive) | > 100 µM (inactive) | 
CC1=CC[C@@]2(C)CC[C@](O)(C(C)C)C2C(OC(=O)c2ccccc2)C1 (stereo partly specified) | 17.9 µM (inactive) | 18 µM (inactive) | 25 µM (inactive) | 23 µM (inactive) | 16.7 µM (inactive) | 36.1 µM (inactive) | 24 µM (inactive) | 18.3 µM (inactive) | 19.5 µM (inactive) | 23.8 µM (inactive) | 15.6 µM (inactive) | 17.5 µM (inactive) | 21.2 µM (inactive) | 15.5 µM (inactive) | 16 µM (inactive) | 28.9 µM (inactive) | 15.6 µM (inactive) | 18.1 µM (inactive) | 
C/C(=N\NC(=S)N1CCN(C)CC1)c1nc2cccnc2[nH]1 | > 100 µM (inactive) | > 100 µM (inactive) | > 100 µM (inactive) | > 100 µM (inactive) | > 100 µM (inactive) | > 100 µM (inactive) | > 100 µM (inactive) | > 100 µM (inactive) | 92.3 µM (inactive) | > 100 µM (inactive) | > 100 µM (inactive) | > 100 µM (inactive) | > 100 µM (inactive) | > 100 µM (inactive) | > 100 µM (inactive) | > 100 µM (inactive) | > 100 µM (inactive) |  | 
O=C(Nc1ccccc1C(=O)O)C(=Cc1ccccc1O)NC(=O)c1ccccc1 | > 100 µM (inactive) | > 100 µM (inactive) |  | > 100 µM (inactive) | > 100 µM (inactive) | 32.4 µM (inactive) | > 100 µM (inactive) | > 100 µM (inactive) | > 100 µM (inactive) | 61.2 µM (inactive) | > 100 µM (inactive) | > 100 µM (inactive) | > 100 µM (inactive) | > 100 µM (inactive) | > 100 µM (inactive) | > 100 µM (inactive) | > 100 µM (inactive) | > 100 µM (inactive) | 
COc1cc2c(cc1OS(C)(=O)=O)N=C[C@@H]1CCCN1C2=O | > 100 µM (inactive) |  | > 100 µM (inactive) | 72.3 µM (inactive) | > 100 µM (inactive) | > 100 µM (inactive) | > 100 µM (inactive) | > 100 µM (inactive) |  | > 100 µM (inactive) | > 100 µM (inactive) | > 100 µM (inactive) | > 100 µM (inactive) | > 100 µM (inactive) | > 100 µM (inactive) | > 100 µM (inactive) | > 100 µM (inactive) | > 100 µM (inactive) | 
O=C1N[C@@H]2c3c(csc3Br)C(=O)[C@@H]2O1 | 43.7 µM (inactive) | 53.2 µM (inactive) |  | 15 µM (inactive) | 38.5 µM (inactive) | 19.9 µM (inactive) | 33.3 µM (inactive) | > 100 µM (inactive) | 21.5 µM (inactive) |  | 59.2 µM (inactive) | 20.7 µM (inactive) | 31 µM (inactive) | 30.4 µM (inactive) | 26.9 µM (inactive) | 24.3 µM (inactive) | 26.5 µM (inactive) | 39.1 µM (inactive) | 25.1 µM (inactive)
COc1ccc(-[n+]2nc(S(=O)(=O)O)c(/C=C/c3ccc(N(C)C)cc3)cc2C#N)cc1 | > 100 µM (inactive) | > 100 µM (inactive) | > 100 µM (inactive) | > 100 µM (inactive) | > 100 µM (inactive) | > 100 µM (inactive) | > 100 µM (inactive) | > 100 µM (inactive) | > 100 µM (inactive) | > 100 µM (inactive) | > 100 µM (inactive) | > 100 µM (inactive) | > 100 µM (inactive) | > 100 µM (inactive) | > 100 µM (inactive) |  | > 100 µM (inactive) | > 100 µM (inactive) | 
CN(CCc1ccccn1)C(=S)N/N=C(\c1ccccc1)c1ccccn1 |  | < 0.0215 µM (active) | 0.0334 µM (active) | < 0.01 µM (active) | < 0.01 µM (active) | 0.573 µM (active) | 0.802 µM (active) | 0.0986 µM (active) | < 0.01 µM (active) |  | < 0.0266 µM (active) | < 0.01 µM (active) | 1.91 µM (inactive) | < 0.01 µM (active) | < 0.01 µM (active) | < 0.01 µM (active) | < 0.01 µM (active) | 1.41 µM (inactive) | 0.582 µM (active)
CCOC(=O)c1ccc2c(c1)nc1n2C(c2c(F)cccc2F)SC1 (stereo unspecified) | > 100 µM (inactive) | 31.9 µM (inactive) | 46.6 µM (inactive) | 33.5 µM (inactive) | 19 µM (inactive) | 30.6 µM (inactive) | 97.1 µM (inactive) | 13.1 µM (inactive) | 29.1 µM (inactive) | 6.9 µM (inactive) | 21.5 µM (inactive) | 17.8 µM (inactive) | 26.2 µM (inactive) |  | 21.8 µM (inactive) | 24.4 µM (inactive) | 0.951 µM (active) | 30.6 µM (inactive) | 
COc1ccc(-c2nc(-c3cc4c(ccc5ccccc54)oc3=O)cs2)cc1 | 73.6 µM (inactive) | 73.3 µM (inactive) | 43.7 µM (inactive) | > 100 µM (inactive) | > 100 µM (inactive) | > 100 µM (inactive) | > 100 µM (inactive) | > 100 µM (inactive) | > 100 µM (inactive) | 31 µM (inactive) | > 100 µM (inactive) |  | > 100 µM (inactive) | > 100 µM (inactive) | > 100 µM (inactive) | > 100 µM (inactive) | > 100 µM (inactive) | > 100 µM (inactive) | 
COC(=O)C1=C(C)NC(C)=C(C(=O)OC)C1c1ccccc1NO | 65.6 µM (inactive) | > 100 µM (inactive) | > 100 µM (inactive) | 68.5 µM (inactive) | > 100 µM (inactive) | 47.2 µM (inactive) | > 100 µM (inactive) | > 100 µM (inactive) | 20.1 µM (inactive) | > 100 µM (inactive) | > 100 µM (inactive) | > 100 µM (inactive) | > 100 µM (inactive) | > 100 µM (inactive) | 48.9 µM (inactive) | > 100 µM (inactive) | > 100 µM (inactive) | > 100 µM (inactive) | 
Cc1ccc(-n2c(N)c(C#N)c3[nH]nc(N)c3c2=O)cc1 | > 100 µM (inactive) | > 100 µM (inactive) | > 100 µM (inactive) | > 100 µM (inactive) | > 100 µM (inactive) | > 100 µM (inactive) | > 100 µM (inactive) | > 100 µM (inactive) | > 100 µM (inactive) | 41 µM (inactive) | > 100 µM (inactive) |  | > 100 µM (inactive) | 95.1 µM (inactive) | > 100 µM (inactive) | > 100 µM (inactive) | > 100 µM (inactive) | > 100 µM (inactive) | 
COc1cc(O)c(C(=O)/C=C/c2ccc(O)cc2)cc1Oc1ccc(C(=O)/C=C/c2ccc(O)cc2)c(O)c1 [RHUSCHALCONE IV] | 3.6 µM (inactive) | 4.47 µM (inactive) | 2.22 µM (inactive) | 2.66 µM (inactive) | 1.36 µM (inactive) | 3.4 µM (inactive) | 1.95 µM (inactive) | 1.92 µM (inactive) | 3.39 µM (inactive) |  | 3.76 µM (inactive) | 2.87 µM (inactive) | 6.52 µM (inactive) | 2.27 µM (inactive) | 2.34 µM (inactive) | 3.65 µM (inactive) | 1.67 µM (inactive) | 2.29 µM (inactive) | 3.21 µM (inactive)
CSc1cc(Cl)c(C)cc1S(=O)(=O)NC(=O)NNc1cnc2ccccc2n1 | > 100 µM (inactive) | > 100 µM (inactive) | > 100 µM (inactive) | > 100 µM (inactive) | > 100 µM (inactive) | > 100 µM (inactive) | > 100 µM (inactive) | > 100 µM (inactive) | > 100 µM (inactive) | > 100 µM (inactive) | > 100 µM (inactive) | > 100 µM (inactive) | > 100 µM (inactive) | > 100 µM (inactive) |  |  | > 100 µM (inactive) | > 100 µM (inactive) | > 100 µM (inactive)
COC(=O)Nc1nc2cc(S(=O)(=O)n3nnc4ccccc43)ccc2[nH]1 | 43.5 µM (inactive) | 15.8 µM (inactive) | > 100 µM (inactive) | > 100 µM (inactive) | > 100 µM (inactive) | > 100 µM (inactive) | > 100 µM (inactive) | > 100 µM (inactive) | > 100 µM (inactive) |  | 21.4 µM (inactive) | > 100 µM (inactive) | 21.3 µM (inactive) | > 100 µM (inactive) | 0.708 µM (active) | 66.2 µM (inactive) | 31.3 µM (inactive) | > 100 µM (inactive) | > 100 µM (inactive)
CCN1CCN(c2ccc(Nc3ccnc4ccc5c(nnn5C)c34)cc2)CC1 | 8.55 µM (inactive) | 5.05 µM (inactive) | 7.23 µM (inactive) | 4.6 µM (inactive) | 3.72 µM (inactive) | 5.46 µM (inactive) | 11.1 µM (inactive) | 11 µM (inactive) | 3.61 µM (inactive) |  | 8.2 µM (inactive) | 5.56 µM (inactive) | 13.1 µM (inactive) | 13.7 µM (inactive) |  | 4.94 µM (inactive) | 12.9 µM (inactive) | 5.25 µM (inactive) | 3.52 µM (inactive)
